Data on 8 compounds can be found in patent publication US10206398B2, “Five-membered C-N-attached aryl sulphide and aryl sulphoxide derivatives as pesticides” (BAYER CROPSCIENCE AKTIENGESELLSCHAFT, priority 2014, dated 2019).

Tested on in one series: not listed separately
Description: log P determination by HPLC on reversed-phase columns (C 18), analogous to OECD Guideline 117. In kind it is physicochemical. The settings on record: method [a]. In short, it runs like this:
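Reversed-phase C18 HPLC per OECD 117, two conditions: [a] pH 2.7, 0.1% formic acid water/acetonitrile, log P(HCOOH); [b] pH 7.8, 0.001 M ammonium hydrogencarbonate/acetonitrile, log P(neutral). Both use a 10–95% acetonitrile gradient; values are interpolated from retention times against C3–C16 unbranched alkan-2-ones.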
With `Cc1cc(F)c(N2C(=O)CN(C(=O)Nc3cccc(Cl)c3)C2=O)cc1[S+]([O-])CC(F)(F)F` (stereo not drawn) [compound 48], the “logP[a]” value is reported as 3.31.

With `Cc1cc(F)c(N2C(=O)CN(C(=O)Nc3cccc(F)c3)C2=O)cc1[S+]([O-])CC(F)(F)F` (stereo not drawn) [compound 46], the “logP[a]” value is reported as 3.02.

On to `Cc1cc(Cl)c(N2C(=O)CN(C(=O)Nc3cccc(Cl)c3)C2=O)cc1[S+]([O-])CC(F)(F)F` (racemic) [compound 72], for which the “logP[a]” value is recorded as 3.55.

With `Cc1cc(F)c(N2C(=O)C(C)N(C(=O)NCC(F)(F)F)C2=O)cc1SCC(F)(F)F` (racemic) [compound 79], the “logP[a]” value turned out to be 3.55.

For the compound `CCC(C)(C)NC(=O)N1CC(=O)N(c2cc(SCC(F)(F)F)c(C)cc2F)C1=O` [compound 101], the “logP[a]” value is on record as 4.09.

As for `Cc1cc(F)c(N2C(=O)CN(C(=O)Nc3cccc(CC(F)(F)F)c3)C2=O)cc1[S+]([O-])CC(F)(F)F` (stereo not drawn) [compound 43], the “logP[a]” value came out at 3.45.

Turning to `Cc1cc(F)c(N2C(=O)CN(C(=O)NC(C)(C)C)C2=O)cc1SCC(F)(F)F` [compound 54], the “logP[a]” value worked out at 3.84.

In the case of `Cc1cc(F)c(N2C(=O)CN(C(=O)NCC(F)(F)F)C2=O)cc1[S+]([O-])CC(F)(F)F` (single isomer, unassigned) [Ex. No. 136], the “logP[a]” value is 2.4.

The same series, now with this note: method [b].
With `Cc1cc(F)c(N2C(=O)CN(C(=O)Nc3cccc(Cl)c3)C2=O)cc1[S+]([O-])CC(F)(F)F` (stereo not drawn) [compound 48], the “logP[b]” value is 3.25.

Consider `Cc1cc(F)c(N2C(=O)CN(C(=O)Nc3cccc(F)c3)C2=O)cc1[S+]([O-])CC(F)(F)F` (stereo not drawn) [compound 46], for which the “logP[b]” value was determined as 2.97.

On to `Cc1cc(Cl)c(N2C(=O)CN(C(=O)Nc3cccc(Cl)c3)C2=O)cc1[S+]([O-])CC(F)(F)F` (racemic) [compound 72], for which the “logP[b]” value is reported as 3.50.

Regarding `Cc1cc(F)c(N2C(=O)C(C)N(C(=O)NCC(F)(F)F)C2=O)cc1SCC(F)(F)F` (racemic) [compound 79], the “logP[b]” value is given as 3.56.

In the case of `CCC(C)(C)NC(=O)N1CC(=O)N(c2cc(SCC(F)(F)F)c(C)cc2F)C1=O` [compound 101], the “logP[b]” value is given as 3.96.

Turning to `Cc1cc(F)c(N2C(=O)CN(C(=O)Nc3cccc(CC(F)(F)F)c3)C2=O)cc1[S+]([O-])CC(F)(F)F` (stereo not drawn) [compound 43], the “logP[b]” value is reported as 3.41.

In the case of `Cc1cc(F)c(N2C(=O)CN(C(=O)NC(C)(C)C)C2=O)cc1SCC(F)(F)F` [compound 54], the “logP[b]” value amounted to 3.71.

With `Cc1cc(F)c(N2C(=O)CN(C(=O)NCC(F)(F)F)C2=O)cc1[S+]([O-])CC(F)(F)F` (single isomer, unassigned) [Ex. No. 136], the “logP[b]” value was determined as 2.43.

The test system of a further series is Tetranychus urticae. Description: Tetranychus urticae - spray test, OP-resistant (bean plants, 7 days). In kind it is in vivo. The settings on record: 20 ppm, after 7 days. Here is the method:
6. Tetranychus urticae—Spray Test, OP-Resistant
Solvent: 7 parts by weight of dimethylformamide
Emulsifier: alkylaryl polyglycol ether
To produce a suitable preparation of active compound, 1 part by weight of active compound is dissolved using the stated parts by weight of solvent and made up with water containing an emulsifier concentration of 1000 ppm until the desired concentration is attained. To produce further test concentrations, the preparation is diluted with emulsifier-containing water. If the addition of ammonium salts or/and penetrants is required, these are each added in a concentration of 1000 ppm to the formulation solution.
Bean plants (Phaseolus vulgaris) heavily infested by all stages of the greenhouse red spider mite (Tetranychus urticae) are treated by spraying with the active compound preparation of the desired concentration.
After 7 days, the efficacy in % is determined. 100% means that all the spider mites have been killed; 0% means that no spider mites have been killed.
As to `Cc1cc(F)c(N2C(=O)CN(C(=O)NCC(F)(F)F)C2=O)cc1[S+]([O-])CC(F)(F)F` (single isomer, unassigned) [Ex. No. 136], the “efficacy (spider mites killed)” value is 100%.

The test system of the next series is Boophilus microplus. Description: Boophilus microplus - injection test. As to conditions: 20 μg/animal, injection into engorged adult female cattle ticks, assessed after 7 days. In kind it is in vivo. Here is the method:
1. Boophilus microplus—Injection Test
Solvent: dimethyl sulphoxide
To produce a suitable preparation of active compound, 10 mg of active compound are mixed with 0.5 ml of solvent and the concentrate is diluted with solvent to the desired concentration.
1 μl of the active compound solution is injected into the abdomen of 5 engorged adult female cattle ticks (Boophilus microplus). The animals are transferred into dishes and kept in a climate-controlled room.
Efficacy is assessed after 7 days by laying of fertile eggs. Eggs which are not visibly fertile are stored in a climate-controlled cabinet until the larvae hatch after about 42 days. An efficacy of 100% means that none of the ticks has laid any fertile eggs; 0% means that all the eggs are fertile.
`Cc1cc(F)c(N2C(=O)CN(C(=O)Nc3cccc(Cl)c3)C2=O)cc1[S+]([O-])CC(F)(F)F` (stereo not drawn) [compound 48]: the “efficacy (laying of fertile eggs)” value was determined as 100%.

With `Cc1cc(F)c(N2C(=O)CN(C(=O)Nc3cccc(F)c3)C2=O)cc1[S+]([O-])CC(F)(F)F` (stereo not drawn) [compound 46], the “efficacy (laying of fertile eggs)” value came out at 100%.

`Cc1cc(Cl)c(N2C(=O)CN(C(=O)Nc3cccc(Cl)c3)C2=O)cc1[S+]([O-])CC(F)(F)F` (racemic) [compound 72]: the “efficacy (laying of fertile eggs)” value is 100%.

`Cc1cc(F)c(N2C(=O)C(C)N(C(=O)NCC(F)(F)F)C2=O)cc1SCC(F)(F)F` (racemic) [compound 79]: the “efficacy (laying of fertile eggs)” value was found to be 100%.

`Cc1cc(F)c(N2C(=O)CN(C(=O)Nc3cccc(CC(F)(F)F)c3)C2=O)cc1[S+]([O-])CC(F)(F)F` (stereo not drawn) [compound 43]: the “efficacy (laying of fertile eggs)” value is 100%.

As for `Cc1cc(F)c(N2C(=O)CN(C(=O)NC(C)(C)C)C2=O)cc1SCC(F)(F)F` [compound 54], the “efficacy (laying of fertile eggs)” value is listed as 100%.

The next series deals with Tetranychus urticae. Description: Tetranychus urticae - spray test, OP-resistant (bean leaf discs, 6 days). The format is in vivo. As to conditions: 500 g/ha, after 6 days. Summed up: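 Bean leaf discs carrying all stages of OP-resistant Tetranychus urticae were sprayed with compound formulated in acetone/DMF and diluted in water with 1000 ppm emulsifier. Mortality was scored after 6 days as % efficacy, where 100% means all mites were killed.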
As to `Cc1cc(F)c(N2C(=O)CN(C(=O)Nc3cccc(Cl)c3)C2=O)cc1[S+]([O-])CC(F)(F)F` (stereo not drawn) [compound 48], the “efficacy (spider mites killed)” value worked out at 100%.

Regarding `Cc1cc(F)c(N2C(=O)CN(C(=O)Nc3cccc(F)c3)C2=O)cc1[S+]([O-])CC(F)(F)F` (stereo not drawn) [compound 46], the “efficacy (spider mites killed)” value was 100%.

Regarding `Cc1cc(Cl)c(N2C(=O)CN(C(=O)Nc3cccc(Cl)c3)C2=O)cc1[S+]([O-])CC(F)(F)F` (racemic) [compound 72], the “efficacy (spider mites killed)” value amounted to 100%.

With `Cc1cc(F)c(N2C(=O)C(C)N(C(=O)NCC(F)(F)F)C2=O)cc1SCC(F)(F)F` (racemic) [compound 79], the “efficacy (spider mites killed)” value was determined as 100%.

Regarding `CCC(C)(C)NC(=O)N1CC(=O)N(c2cc(SCC(F)(F)F)c(C)cc2F)C1=O` [compound 101], the “efficacy (spider mites killed)” value came to 100%.

As for `Cc1cc(F)c(N2C(=O)CN(C(=O)Nc3cccc(CC(F)(F)F)c3)C2=O)cc1[S+]([O-])CC(F)(F)F` (stereo not drawn) [compound 43], the “efficacy (spider mites killed)” value came to 100%.

Consider `Cc1cc(F)c(N2C(=O)CN(C(=O)NC(C)(C)C)C2=O)cc1SCC(F)(F)F` [compound 54], for which the “efficacy (spider mites killed)” value is recorded as 100%.

Another series deals with Phaedon cochleariae. Description: Phaedon cochleariae - spray test. As to conditions: 500 g/ha, Chinese cabbage leaf discs, after 7 days. The format is in vivo. Here is the method: 4. Phaedon cochleariae—Spray Test
Solvent: 78.0 parts by weight of acetone
• 1.5 parts by weight of dimethylformamide Emulsifier: alkylaryl polyglycol ether
To produce a suitable preparation of active compound, 1 part by weight of active compound is dissolved using the stated parts by weight of solvent and made up with water containing an emulsifier concentration of 1000 ppm until the desired concentration is attained. To produce further test concentrations, the preparation is diluted with emulsifier-containing water.
After 7 days, the efficacy in % is determined. 100% means that all the beetle larvae have been killed; 0% means that no beetle larvae have been killed.
With `Cc1cc(F)c(N2C(=O)CN(C(=O)Nc3cccc(Cl)c3)C2=O)cc1[S+]([O-])CC(F)(F)F` (stereo not drawn) [compound 48], the “efficacy (beetle larvae killed)” value came to 83%.

As for `Cc1cc(Cl)c(N2C(=O)CN(C(=O)Nc3cccc(Cl)c3)C2=O)cc1[S+]([O-])CC(F)(F)F` (racemic) [compound 72], the “efficacy (beetle larvae killed)” value came out at 100%.

Take `Cc1cc(F)c(N2C(=O)C(C)N(C(=O)NCC(F)(F)F)C2=O)cc1SCC(F)(F)F` (racemic) [compound 79]: the “efficacy (beetle larvae killed)” value turned out to be 100%.

As to `CCC(C)(C)NC(=O)N1CC(=O)N(c2cc(SCC(F)(F)F)c(C)cc2F)C1=O` [compound 101], the “efficacy (beetle larvae killed)” value was 83%.

In the case of `Cc1cc(F)c(N2C(=O)CN(C(=O)Nc3cccc(CC(F)(F)F)c3)C2=O)cc1[S+]([O-])CC(F)(F)F` (stereo not drawn) [compound 43], the “efficacy (beetle larvae killed)” value is given as 83%.

Regarding `Cc1cc(F)c(N2C(=O)CN(C(=O)NC(C)(C)C)C2=O)cc1SCC(F)(F)F` [compound 54], the “efficacy (beetle larvae killed)” value is 100%.

The subject of the next series is Meloidogyne incognita. Description: Meloidogyne incognita - test. The format is in vivo. As to conditions: 20 ppm, lettuce, after 14 days.
Regarding `Cc1cc(F)c(N2C(=O)CN(C(=O)Nc3cccc(Cl)c3)C2=O)cc1[S+]([O-])CC(F)(F)F` (stereo not drawn) [compound 48], the “nematicidal efficacy (formation of galls)” value (shortened to “nematicidal efficacy”) is recorded as 90%.

Consider `Cc1cc(Cl)c(N2C(=O)CN(C(=O)Nc3cccc(Cl)c3)C2=O)cc1[S+]([O-])CC(F)(F)F` (racemic) [compound 72], for which the “nematicidal efficacy” value turned out to be 90%.

In the case of `CCC(C)(C)NC(=O)N1CC(=O)N(c2cc(SCC(F)(F)F)c(C)cc2F)C1=O` [compound 101], the “nematicidal efficacy” value was 90%.

On to `Cc1cc(F)c(N2C(=O)CN(C(=O)Nc3cccc(CC(F)(F)F)c3)C2=O)cc1[S+]([O-])CC(F)(F)F` (stereo not drawn) [compound 43], for which the “nematicidal efficacy” value is given as 100%.

Consider `Cc1cc(F)c(N2C(=O)CN(C(=O)NC(C)(C)C)C2=O)cc1SCC(F)(F)F` [compound 54], for which the “nematicidal efficacy” value is recorded as 100%.

The subject of another series is Myzus persicae. Description: Myzus persicae - spray test. The format is in vivo. As to conditions: 500 g/ha, Chinese cabbage leaf discs, after 6 days. Here is the method: 3. Myzus persicae—Spray Test Solvent: 78 parts by weight of acetone • • 1.5 parts by weight of dimethylformamide Emulsifier: alkylaryl polyglycol ether To produce a suitable preparation of active compound, 1 part by weight of active compound is dissolved using the stated parts by weight of solvent and made up with water containing an emulsifier concentration of 1000 ppm until the desired concentration is attained. To produce further test concentrations, the preparation is diluted with emulsifier-containing water. Discs of Chinese cabbage leaves (Brassica pekinensis) infested by all stages of the green peach aphid (Myzus persicae) are sprayed with an active compound preparation of the desired concentration. After 6 days, the efficacy in % is determined. 100% means that all the aphids have been killed; 0% means that no aphids have been killed.
Turning to `Cc1cc(F)c(N2C(=O)CN(C(=O)Nc3cccc(F)c3)C2=O)cc1[S+]([O-])CC(F)(F)F` (stereo not drawn) [compound 46], the “efficacy (aphids killed)” value is 90%.
